Molecules are shown by their SMILES. pKi: −log10 of the molar value.

One assay concerns the target human orexin-2 receptor (Homo sapiens (Human), UniProt O43614). Nature of the assay: Human orexin 2 receptor radioligand binding ([3H]-EMPA competition). To be noted: HEK293 cells stably expressing human orexin-2 receptor; [3H]-EMPA 5 nM final; read-out: OR-2 Ki. The essentials: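 Competition binding on HEK293 cells stably expressing human orexin-2 receptor, using 5 nM final [3H]-EMPA in PBS, compounds 0.1 nM to 10 μM (DMSO ≤0.1%). 60 min at room temperature, then filtration and scintillation counting; nonspecific binding defined with 10 μM of a reference antagonist.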

The next assay has as its target human orexin 1 receptor (Homo sapiens (Human), UniProt O43613). In words: Human orexin 1 receptor radioligand binding ([3H]-SB674042 competition). The conditions noted are these: CHO cells stably expressing human orexin 1 receptor; [3H]-SB674042 4 nM final; read-out: OR-1 Ki. The gist of the method: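 CHO cells stably expressing human OX1R incubated 60 min at room temperature with [3H]-SB674042 and compounds (7 concentrations, 0.1 nM–10 μM; DMSO ≤0.1%) in PBS. Nonspecific binding defined with 10 μM of a reference urea antagonist; bound radioactivity measured by filtration and scintillation counting.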

Sequence of human orexin 1 receptor (O43613 whole entry): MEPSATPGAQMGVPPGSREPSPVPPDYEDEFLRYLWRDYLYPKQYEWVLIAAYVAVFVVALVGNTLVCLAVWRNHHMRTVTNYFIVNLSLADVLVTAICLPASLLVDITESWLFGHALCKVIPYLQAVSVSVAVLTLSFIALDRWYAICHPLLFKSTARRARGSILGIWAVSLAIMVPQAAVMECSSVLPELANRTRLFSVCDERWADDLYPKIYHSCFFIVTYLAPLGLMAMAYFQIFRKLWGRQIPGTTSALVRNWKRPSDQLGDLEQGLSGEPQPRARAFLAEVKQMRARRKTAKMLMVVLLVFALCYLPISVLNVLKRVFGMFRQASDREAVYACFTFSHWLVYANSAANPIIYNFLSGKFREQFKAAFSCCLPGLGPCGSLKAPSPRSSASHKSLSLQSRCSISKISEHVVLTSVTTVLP
Sequence of human orexin-2 receptor (O43614 whole entry): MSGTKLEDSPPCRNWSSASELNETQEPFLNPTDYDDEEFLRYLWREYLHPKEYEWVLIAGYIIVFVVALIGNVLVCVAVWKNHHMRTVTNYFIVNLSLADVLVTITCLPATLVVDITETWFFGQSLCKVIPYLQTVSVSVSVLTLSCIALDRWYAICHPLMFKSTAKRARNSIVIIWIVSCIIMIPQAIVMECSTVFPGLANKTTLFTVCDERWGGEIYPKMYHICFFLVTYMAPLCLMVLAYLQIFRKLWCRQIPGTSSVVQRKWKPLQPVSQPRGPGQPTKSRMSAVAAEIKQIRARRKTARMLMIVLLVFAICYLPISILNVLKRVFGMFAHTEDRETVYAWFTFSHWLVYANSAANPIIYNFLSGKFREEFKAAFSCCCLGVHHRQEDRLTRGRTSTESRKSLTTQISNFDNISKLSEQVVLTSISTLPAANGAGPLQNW

For `CNc1cc(N2C[C@@H]3CCN(C(=O)c4cc(F)ccc4-n4nccn4)C[C@@H]32)ncn1` [Example 190, 6-[(1R,6S)-3-{[5-Fluoro-2-(2H-1,2,3-triazol-2-yl)phenyl]carbonyl}-3,8-diazabicyclo[4.2.0]oct-8-yl]-N-methylpyrimidin-4-amine], the pKi (commonly the negative decadic logarithm of the Ki, by convention in mol/L) at human orexin-2 receptor was 5.96; at human orexin 1 receptor, 5.00.

`Cc1nc(N)cc(N2C[C@@H]3CCN(C(=O)c4cc(F)ccc4-n4nccn4)C[C@@H]32)n1` [Example 191, 6-[(1R,6S)-3-{[5-Fluoro-2-(2H-1,2,3-triazol-2-yl)phenyl]carbonyl}-3,8-diazabicyclo[4.2.0]oct-8-yl]-2-methylpyrimidin-4-amine]: the pKi on human orexin-2 receptor was 6.64; on human orexin 1 receptor, 5.00.

With `Nc1cc(N2C[C@@H]3CCN(C(=O)c4cc(F)ccc4-n4nccn4)C[C@@H]32)nc(N)n1` [Example 192, 6-[(1R,6S)-3-{[5-Fluoro-2-(2H-1,2,3-triazol-2-yl)phenyl]carbonyl}-3,8-diazabicyclo[4.2.0]oct-8-yl]pyrimidine-2,4-diamine], the pKi on human orexin-2 receptor is 5.85; on human orexin 1 receptor, 5.00.

Turning to `O=C(c1cc(F)ccc1-n1nccn1)N1CC[C@H]2CN(c3cc(NC4CC4)ncn3)[C@H]2C1` [Example 194, N-Cyclopropyl-6-[(1R,6S)-3-{[5-fluoro-2-(2H-1,2,3-triazol-2-yl)phenyl]carbonyl}-3,8-diazabicyclo[4.2.0]oct-8-yl]pyrimidin-4-amine], the values for the negative logarithm of the Ki (pKi) at human orexin-2 receptor and on human orexin 1 receptor were 6.19 and 5.00, respectively.

Take `Cc1ccc(C(F)(F)F)c(C(=O)N2CC[C@H]3CN(c4ccnc(-c5ccccc5)n4)[C@H]3C2)c1` [Example 195, (5-Methyl-2-(trifluoromethyl)phenyl)((1R,6S)-8-(2-phenylpyrimidin-4-yl)-3,8-diazabicyclo[4.2.0]octan-3-yl)methanone]: the results for the pKi on human orexin-2 receptor and on human orexin 1 receptor were 7.55 and 7.80, respectively.

`Cc1onc(-c2ccccc2)c1C(=O)N1CC[C@H]2CN(c3ccnc(-c4ccccc4)n3)[C@H]2C1` [Example 197, (5-Methyl-3-phenylisoxazol-4-yl)((1R,6S)-8-(2-phenylpyrimidin-4-yl)-3,8-diazabicyclo[4.2.0]octan-3-yl)methanone]: the pKi was 5.51 at human orexin-2 receptor and 5.59 on human orexin 1 receptor.

With `Cc1nc(N2C[C@@H]3CCN(C(=O)c4ccccc4-n4nccn4)C[C@@H]32)nc(C)c1C` [Example 270, (1R,6S)-3-{[2-(2H-1,2,3-Triazol-2-yl)phenyl]carbonyl}-8-(4,5,6-trimethylpyrimidin-2-yl)-3,8-diazabicyclo[4.2.0]octane], the pKi at human orexin-2 receptor is 7.96; on human orexin 1 receptor it was 7.80.

Values taken from patent US8680275B2, “Fused heterocyclic compounds as orexin receptor modulators” (Janssen Pharmaceutica NV, priority 2009, dated 2014).
